Laboratory results: patent publication US20220168427A1 (Ranok Therapeutics (Hangzhou) Co. Ltd., priority 2019, published 2022)

Experiments:
[1] = system: MV4-11 cells; assay: MV4-11 Cell Cytotoxicity Assay; format: cell-based, human; details: 72 hr, CCK-8
From the text: % Inhibition=100−(D−B)/(S−B)*100%.
S: The absorbance of the maximum (cells with DMSO)
B: The absorbance of the minimum (medium with DMSO)

[2] = biological target: HSP90α (Homo sapiens, UniProt P07900); assay: HSP90α Binding Fluorescent Polarization (FP) Assay
Outline: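 Duplicate wells held BSA buffer, FITC-geldanamycin tracer, compound (3-fold dilution plate spanning 40 μM–2.0 nM) and recombinant protein diluted to 28 μg/ml before addition. Polarization read at 30, 60 and 120 min, 25 °C. Background-corrected mP values gave IC50 through a four-parameter inhibitor-response fit.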

[3] = system: EGFR; assay: HSP90 Client Protein Degradation Flow Cytometry Assay, EGFR in HEK-293 cells; format: cell-based, human
Protocol: (§1) MV4-11 cells were plated in a 24-well tissue culture plate at a density of 350,000 cells/450 μL/well and incubated in 37° C./5% CO2 for 1 hr. Cells were then treated with compounds at various concentrations and incubated in 37° C./5% CO2 for 24 hr. Cells were harvested, washed once, counted and 200 μL of 1% paraformaldehyde/PBS was added and incubated for 15 min at room temperature. 200 μL of 1×PBS/0.4% Triton X-100 was added and incubated for 15 min at 4° C. Cells were washed three times and resuspended in 50 μL of 1×PBS/0.2% Triton X-100. 2 μL/10^6 cells of anti-BRD4 antibody (ABCAM, #128874) was added and mixed by pipetting up and down. Cells were incubated for 30 min at room temperature in the dark, washed three times and resuspended in 50 μL of 1×PBS/0.2% Triton X-100. Goat anti-rabbit IgG H&L antibody (1:2000 dilution) was added and mixed by pipetting up and down and incubated for 30 min at room temperature in the dark. Finally, cells were washed three times and resuspended in 200 μL of PBS for flow cytometric analysis.
(§2) Similar flow cytometry experiments for ERBB2 in BT-474 human breast carcinoma cells (ATCC, #HTB-20) and IGF1R, EGFR and RAF1 in HEK-293 human embryonic kidney (ATCC, #CRL-1573) were performed using anti-ERBB2 (R&D, #FAB1129P), anti-IGF1R (Cell Signaling Technology, #9750), anti-EGFR (Cell Signaling Technology, #139690) and anti-RAF1 (ABCAM, #ab181115) antibodies.

[4] = system: IGF1R; assay: HSP90 Client Protein Degradation Flow Cytometry Assay, IGF1R in HEK-293 cells; format: cell-based, human
Protocol: as §1, §2

[5] = system: HSP90 client proteins (ERBB2, IGF1R, EGFR, RAF1); assay: HSP90 Client Protein Degradation Flow Cytometry Assay, all clients together; format: cell-based, human; details: versus 59 nM for BRD4 degradation by western blotting in MV4-11 cells
Protocol: as §1
as §2, with “antibodies. […]” for “antibodies.”

[6] = system: MV4-11 xenograft; assay: MV4-11 AML tumor xenograft study in mice; details: for animals tumor free at the end of the study: 3 weeks; for tumor growth inhibition: after 3 weeks of dosing
Protocol: Tumor Xenograft Studies in Mice
MV4-11 acute myeloid leukemia and SU-DHL-4 diffuse large B-cell lymphoma (ATCC, #CRL-2957) cells were cultured in medium supplemented with 10% fetal bovine serum at 37° C./5% CO2. 5×10^6 MV-4-11 or 1×10^7 SU-DHL-4 cells were collected and re-suspended in 0.1 mL of serum-free media with Matrigel (1:1 v/v) per mouse for subcutaneous inoculation in isoflurane anesthetized male BALB/c nude or C.B-17 scid mice, respectively (treated in accordance with AAALAC animal welfare guidelines). When the average tumor volumes reached 100-200 mm^3, tumor volume outliers were removed and the remaining animals randomly divided into groups of 6-8 with similar average tumor volumes in each group. […] […] The appearance and behavior of each mouse was observed and recorded daily. Body weights and tumor volumes were measured and recorded every 2-4 days and the results were expressed as group means±SEM. Pairwise statistical comparisons between groups were performed by one-way ANOVA, and p<0.05 was considered statistically significant.

[7] = system: RAF1; assay: HSP90 Client Protein Degradation Flow Cytometry Assay, RAF1 in HEK-293 cells; format: cell-based, human
Protocol: as §1, §2

[8] = system: ERBB2; assay: HSP90 Client Protein Degradation Flow Cytometry Assay, ERBB2 in BT-474 cells; format: cell-based, human
Protocol: as §1, §2

[9] = 100 mg/kg intravenously 1×/week

SMILES: Cc1sc2c(c1C)C(c1ccc(Cl)cc1)=N[C@@H](CC(=O)N1CCC(CN3CCN(Cc4ccc(-n5c(O)nnc5-c5cc(C(C)C)c(O)cc5O)cc4)CC3)CC1)c1nnc(C)n1-2.Cl [Compound 74, (S)-2-(4-(4-chlorophenyl)-2,3,9-trimethyl-6H-thieno[3,2-f][1,2,4]triazolo[4,3-a][1,4]diazepin-6-yl)-1-(4-((4-(4-(3-(2,4-dihydroxy-5-isopropylphenyl)-5-hydroxy-4H-1,2,4-triazol-4-yl)benzyl)piperazin-1-yl)methyl)piperidin-1-yl)ethan-1-one hydrochloride]
- IC50 [1]: < 100 nM
- potency in binding to HSP90, in words [2]: moderate potency
- IC50 ([2]; competition with FITC-geldanamycin, read-out: HSP90 Binding Potency): 100 to 1000 nM
- IC50 [3]: 405 nM
- IC50 [4]: 1060 nM
- IC50 for HSP90 clients higher than the IC50 value for BRD4 degradation [5]: 6- to 18 fold
- animals tumor free at the end of the study ([6]; 50 mg/kg intravenously 1×/week): 1 out of 6
- tumor growth inhibition ([6]; 50 mg/kg intravenously 1×/week): significant tumor growth inhibition
- animals tumor free at the end of the study [6, 9]: 4 out of 6
- tumor growth inhibition [6, 9]: significant tumor growth inhibition
- animal deaths and body weights ([6]; any group): No animal deaths or significant effects on body weights were observed
- IC50 [7]: 762 nM
- IC50 [8]: 340 nM
